According to ChEMBL document CHEMBL5465560, “Selectivity Literature for EUbOPEN Chemogenomic Library” (2024):
Each block holds one compound with its values, some of them ahead of it.

Legend:
[1] = biological target: T1, Dual specificity mitogen-activated protein kinase kinase 5 (Homo sapiens) (UniProt Q13163); conditions: at 10 µM
T1 sequence (whole entry): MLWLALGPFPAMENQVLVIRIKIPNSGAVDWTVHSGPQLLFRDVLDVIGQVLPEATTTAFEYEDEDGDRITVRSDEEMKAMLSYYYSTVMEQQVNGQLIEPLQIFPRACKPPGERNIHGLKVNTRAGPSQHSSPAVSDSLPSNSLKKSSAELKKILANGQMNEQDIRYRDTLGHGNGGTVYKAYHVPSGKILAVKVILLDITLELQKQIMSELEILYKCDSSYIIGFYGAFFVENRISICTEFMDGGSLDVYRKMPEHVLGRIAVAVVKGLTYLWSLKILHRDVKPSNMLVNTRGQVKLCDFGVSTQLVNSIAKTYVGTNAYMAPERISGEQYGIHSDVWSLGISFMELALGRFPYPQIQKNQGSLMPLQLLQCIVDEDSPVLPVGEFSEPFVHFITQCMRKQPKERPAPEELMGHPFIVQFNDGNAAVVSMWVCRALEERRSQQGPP

[2] = biological target: Dual specificity protein kinase CLK3 (Homo sapiens, UniProt P49761); assay: Selectivity interaction (ActivX KiNativ screen (kinase selectivity in THP-1 cell lysates)) EUB0000639a CLK3; format: subcellular; conditions: lysate
[3] = biological target: Serine/threonine-protein kinase MARK2 (Homo sapiens) (UniProt Q7KZI7); assay: Selectivity interaction (ActivX KiNativ screen (kinase selectivity in THP-1 cell lysates)) EUB0000639a MARK2; format: subcellular; conditions: lysate, at 0.04 µM
[4] = biological target: Ribosomal protein S6 kinase alpha-3 (Homo sapiens, UniProt P51812); assay: Selectivity interaction (ActivX KiNativ screen (kinase selectivity in THP-1 cell lysates)) EUB0000639a RPS6KA3; format: subcellular; conditions: lysate, at 5 µM
[5] = biological target: Mast/stem cell growth factor receptor Kit (Homo sapiens, UniProt P10721); assay: Selectivity interaction (Kinase panel (33PanQinase(R) Activity Assay)) EUB0000877a KIT
[6] = biological target: T2, MAP kinase-activated protein kinase 5 (Homo sapiens) (UniProt Q8IW41); assay: Selectivity interaction (KinomeScan (DiscoverX)) EUB0001079a MAPKAPK5; conditions: at 1 µM
T2 sequence (whole entry): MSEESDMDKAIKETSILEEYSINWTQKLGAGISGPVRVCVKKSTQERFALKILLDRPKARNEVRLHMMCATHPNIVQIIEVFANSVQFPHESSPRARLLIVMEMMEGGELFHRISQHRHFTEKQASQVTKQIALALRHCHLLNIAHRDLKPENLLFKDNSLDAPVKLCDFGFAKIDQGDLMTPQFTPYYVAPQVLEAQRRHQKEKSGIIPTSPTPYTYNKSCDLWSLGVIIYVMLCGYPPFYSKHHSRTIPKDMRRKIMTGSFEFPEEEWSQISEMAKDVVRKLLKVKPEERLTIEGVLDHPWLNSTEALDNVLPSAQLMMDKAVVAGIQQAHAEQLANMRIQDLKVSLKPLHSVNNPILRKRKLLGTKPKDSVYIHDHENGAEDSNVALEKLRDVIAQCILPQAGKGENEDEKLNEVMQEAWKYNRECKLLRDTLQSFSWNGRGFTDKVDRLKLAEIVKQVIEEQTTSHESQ

[7] = biological target: T3, Tyrosine-protein kinase ZAP-70 (Homo sapiens) (UniProt P43403); assay: Selectivity interaction (KinomeScan (DiscoverX)) EUB0001079a ZAP70; conditions: at 1 µM
T3 sequence (whole entry): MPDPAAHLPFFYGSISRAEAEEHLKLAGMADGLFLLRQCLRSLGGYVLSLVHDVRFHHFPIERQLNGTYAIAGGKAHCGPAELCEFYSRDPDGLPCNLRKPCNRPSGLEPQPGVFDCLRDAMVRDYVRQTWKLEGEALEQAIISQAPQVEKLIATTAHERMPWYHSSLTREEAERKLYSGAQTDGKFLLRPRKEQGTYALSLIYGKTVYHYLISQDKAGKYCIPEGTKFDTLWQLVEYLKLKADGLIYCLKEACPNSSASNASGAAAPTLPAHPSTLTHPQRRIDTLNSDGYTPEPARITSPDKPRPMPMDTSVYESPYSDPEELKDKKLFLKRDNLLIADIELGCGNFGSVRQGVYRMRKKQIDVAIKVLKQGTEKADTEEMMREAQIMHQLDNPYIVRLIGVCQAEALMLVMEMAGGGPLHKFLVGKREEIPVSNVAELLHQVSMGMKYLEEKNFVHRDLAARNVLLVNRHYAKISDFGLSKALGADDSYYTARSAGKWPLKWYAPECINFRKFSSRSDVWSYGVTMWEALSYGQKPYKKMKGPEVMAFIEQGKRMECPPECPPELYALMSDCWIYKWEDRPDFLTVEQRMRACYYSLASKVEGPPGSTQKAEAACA

[8] = biological target: Hepatocyte growth factor-like protein (Homo sapiens) (UniProt P26927); conditions: at 1 µM
[9] = biological target: Serine/threonine-protein kinase MARK2 (Homo sapiens) (UniProt Q7KZI7); assay: Selectivity interaction (ActivX KiNativ screen (ex vivo kinase selectivity in human PBMCs)) EUB0001619a MARK2; format: cell-based; conditions: PBMC, at 1 µM
[10] = biological target: T4, Serine/threonine-protein kinase ICK (Homo sapiens) (UniProt Q9UPZ9); assay: Selectivity interaction (KinomeScan (DiscoverX)) EUB0000618a ICK; conditions: at 10 µM
T4 sequence (whole entry): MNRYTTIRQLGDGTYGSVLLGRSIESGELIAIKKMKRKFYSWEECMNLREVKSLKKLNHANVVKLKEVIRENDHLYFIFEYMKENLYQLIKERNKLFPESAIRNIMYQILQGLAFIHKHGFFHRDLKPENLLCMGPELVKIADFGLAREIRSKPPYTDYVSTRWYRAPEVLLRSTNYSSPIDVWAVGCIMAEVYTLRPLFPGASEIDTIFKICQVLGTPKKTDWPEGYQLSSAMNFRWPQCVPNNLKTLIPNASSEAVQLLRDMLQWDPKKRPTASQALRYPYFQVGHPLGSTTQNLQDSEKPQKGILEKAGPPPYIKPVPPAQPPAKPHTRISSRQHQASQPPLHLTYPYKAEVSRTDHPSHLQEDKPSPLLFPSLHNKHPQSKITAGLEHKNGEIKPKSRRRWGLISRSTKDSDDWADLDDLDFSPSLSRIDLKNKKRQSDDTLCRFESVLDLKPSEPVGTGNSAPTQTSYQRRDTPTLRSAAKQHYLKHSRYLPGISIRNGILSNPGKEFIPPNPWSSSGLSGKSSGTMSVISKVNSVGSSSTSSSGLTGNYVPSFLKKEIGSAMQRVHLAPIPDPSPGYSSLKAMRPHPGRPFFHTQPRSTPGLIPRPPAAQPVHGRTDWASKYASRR

[11] = biological target: RAC-beta serine/threonine-protein kinase (Homo sapiens) (UniProt P31751); assay: Selectivity interaction (KinomeScan (DiscoverX)) EUB0000666a AKT2; conditions: at 10 µM
Chain of RAC-beta serine/threonine-protein kinase (Homo sapiens) (P31751 whole entry): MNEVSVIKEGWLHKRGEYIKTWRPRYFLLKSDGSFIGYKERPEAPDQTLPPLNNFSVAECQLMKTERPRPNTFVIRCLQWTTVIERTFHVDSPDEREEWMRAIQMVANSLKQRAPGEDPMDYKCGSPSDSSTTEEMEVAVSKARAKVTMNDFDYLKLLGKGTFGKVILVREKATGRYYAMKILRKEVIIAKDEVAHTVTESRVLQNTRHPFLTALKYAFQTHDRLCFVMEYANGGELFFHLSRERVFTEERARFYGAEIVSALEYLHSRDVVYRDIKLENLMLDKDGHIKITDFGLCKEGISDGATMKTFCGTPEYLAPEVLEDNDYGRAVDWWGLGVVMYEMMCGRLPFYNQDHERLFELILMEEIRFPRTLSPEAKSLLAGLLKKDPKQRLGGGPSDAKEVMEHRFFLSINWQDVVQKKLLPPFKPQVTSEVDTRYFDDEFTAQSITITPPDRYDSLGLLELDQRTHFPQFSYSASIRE

Chain of Dual specificity protein kinase CLK3 (P49761 whole entry, looked up): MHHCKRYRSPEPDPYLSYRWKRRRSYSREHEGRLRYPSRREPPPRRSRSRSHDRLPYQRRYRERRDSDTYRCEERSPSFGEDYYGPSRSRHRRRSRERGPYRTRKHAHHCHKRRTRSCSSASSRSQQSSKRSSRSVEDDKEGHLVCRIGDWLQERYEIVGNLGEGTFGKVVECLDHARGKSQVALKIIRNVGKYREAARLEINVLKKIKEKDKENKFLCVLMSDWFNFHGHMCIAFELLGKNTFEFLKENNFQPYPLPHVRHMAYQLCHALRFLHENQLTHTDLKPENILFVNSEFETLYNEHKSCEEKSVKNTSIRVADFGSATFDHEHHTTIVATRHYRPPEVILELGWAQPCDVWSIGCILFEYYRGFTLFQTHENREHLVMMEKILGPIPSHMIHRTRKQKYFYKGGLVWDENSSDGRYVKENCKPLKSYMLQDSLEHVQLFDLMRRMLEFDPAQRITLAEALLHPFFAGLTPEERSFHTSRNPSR
Chain of Serine/threonine-protein kinase MARK2 (Homo sapiens) (Q7KZI7 whole entry): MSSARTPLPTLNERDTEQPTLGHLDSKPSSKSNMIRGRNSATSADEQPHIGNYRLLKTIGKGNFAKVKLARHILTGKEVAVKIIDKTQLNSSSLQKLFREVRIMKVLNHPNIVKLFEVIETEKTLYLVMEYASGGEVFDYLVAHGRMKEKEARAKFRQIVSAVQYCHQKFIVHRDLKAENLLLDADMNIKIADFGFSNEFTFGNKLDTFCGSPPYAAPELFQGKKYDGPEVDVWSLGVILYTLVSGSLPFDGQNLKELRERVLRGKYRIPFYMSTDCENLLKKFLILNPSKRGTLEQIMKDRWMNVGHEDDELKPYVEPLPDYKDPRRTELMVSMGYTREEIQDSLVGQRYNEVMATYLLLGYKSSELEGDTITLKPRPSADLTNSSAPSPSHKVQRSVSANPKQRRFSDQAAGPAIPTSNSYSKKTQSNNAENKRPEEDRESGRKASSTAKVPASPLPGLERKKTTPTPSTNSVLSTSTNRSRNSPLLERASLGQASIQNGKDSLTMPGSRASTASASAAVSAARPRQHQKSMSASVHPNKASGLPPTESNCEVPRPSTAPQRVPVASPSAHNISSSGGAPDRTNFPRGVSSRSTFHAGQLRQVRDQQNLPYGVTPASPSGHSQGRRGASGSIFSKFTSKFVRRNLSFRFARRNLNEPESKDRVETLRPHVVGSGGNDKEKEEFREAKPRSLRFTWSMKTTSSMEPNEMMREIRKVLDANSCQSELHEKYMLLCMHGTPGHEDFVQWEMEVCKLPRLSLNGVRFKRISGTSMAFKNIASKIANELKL
Chain of Ribosomal protein S6 kinase alpha-3 (P51812 whole entry): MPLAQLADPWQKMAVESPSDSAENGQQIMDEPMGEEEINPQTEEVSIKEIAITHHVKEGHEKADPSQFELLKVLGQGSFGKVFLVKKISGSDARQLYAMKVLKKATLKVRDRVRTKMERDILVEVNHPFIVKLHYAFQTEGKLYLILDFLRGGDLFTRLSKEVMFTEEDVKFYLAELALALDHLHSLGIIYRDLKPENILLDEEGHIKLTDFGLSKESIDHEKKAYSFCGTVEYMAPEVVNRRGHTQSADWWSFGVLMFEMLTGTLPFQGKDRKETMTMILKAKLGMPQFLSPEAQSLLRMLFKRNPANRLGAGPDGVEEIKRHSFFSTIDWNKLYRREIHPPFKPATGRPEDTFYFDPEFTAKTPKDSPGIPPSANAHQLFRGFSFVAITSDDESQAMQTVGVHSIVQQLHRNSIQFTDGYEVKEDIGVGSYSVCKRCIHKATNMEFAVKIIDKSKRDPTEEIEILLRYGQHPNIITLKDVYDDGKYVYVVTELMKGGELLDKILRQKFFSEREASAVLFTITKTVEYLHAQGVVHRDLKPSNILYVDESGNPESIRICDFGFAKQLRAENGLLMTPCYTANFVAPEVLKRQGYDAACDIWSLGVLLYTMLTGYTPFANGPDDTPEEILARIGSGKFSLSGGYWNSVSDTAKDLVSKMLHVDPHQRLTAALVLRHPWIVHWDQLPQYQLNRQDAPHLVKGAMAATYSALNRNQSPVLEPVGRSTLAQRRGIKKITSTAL
Chain of Mast/stem cell growth factor receptor Kit (P10721 whole entry): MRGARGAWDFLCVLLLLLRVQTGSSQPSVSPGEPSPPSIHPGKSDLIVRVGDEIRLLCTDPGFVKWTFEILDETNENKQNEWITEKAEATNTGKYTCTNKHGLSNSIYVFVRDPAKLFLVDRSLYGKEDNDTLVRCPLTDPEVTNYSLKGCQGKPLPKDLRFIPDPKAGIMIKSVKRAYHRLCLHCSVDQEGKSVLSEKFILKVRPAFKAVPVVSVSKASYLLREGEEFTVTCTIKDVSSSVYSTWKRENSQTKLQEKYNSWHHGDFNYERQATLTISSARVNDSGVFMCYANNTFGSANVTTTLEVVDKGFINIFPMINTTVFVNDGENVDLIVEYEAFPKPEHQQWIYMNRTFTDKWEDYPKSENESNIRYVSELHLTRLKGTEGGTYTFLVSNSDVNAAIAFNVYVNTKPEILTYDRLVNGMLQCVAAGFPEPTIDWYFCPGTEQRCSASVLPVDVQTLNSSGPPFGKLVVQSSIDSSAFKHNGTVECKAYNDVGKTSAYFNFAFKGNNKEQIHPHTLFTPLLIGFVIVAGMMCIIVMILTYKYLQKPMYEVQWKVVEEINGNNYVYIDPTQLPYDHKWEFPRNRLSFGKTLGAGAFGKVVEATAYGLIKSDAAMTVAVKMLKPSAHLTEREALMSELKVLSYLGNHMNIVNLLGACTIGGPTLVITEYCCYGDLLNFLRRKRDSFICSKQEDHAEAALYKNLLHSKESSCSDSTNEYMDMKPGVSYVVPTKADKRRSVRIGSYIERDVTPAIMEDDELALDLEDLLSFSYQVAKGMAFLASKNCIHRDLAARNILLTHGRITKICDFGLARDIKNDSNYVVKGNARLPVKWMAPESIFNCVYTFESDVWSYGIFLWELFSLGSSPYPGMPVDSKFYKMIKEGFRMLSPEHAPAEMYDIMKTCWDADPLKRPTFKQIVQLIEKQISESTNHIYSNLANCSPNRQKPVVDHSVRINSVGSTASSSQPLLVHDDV

Structure (SMILES): Cc1cc([C@@H](C)Nc2ccccc2C(=O)O)c2nc(N3CCOCC3)cc(=O)n2c1 [AZD-6482]
- % of control [1]: 100%

- % of inhibition ([2]; at 0.01 µM): 8.2%
- % of inhibition ([2]; at 0.04 µM): 15.5%
- % of inhibition ([2]; at 0.2 µM): 0.7%
- % of inhibition ([2]; at 1 µM): 5.8%
- % of inhibition ([2]; at 5 µM): 12.1%
- % of inhibition [3]: -13.3%
- % of inhibition [4]: 2.9%
Structure (SMILES): CC[C@@H]1[C@H](F)C(=O)N[C@@H]1COc1nccc2cc(C(N)=O)c(OC)cc12 [ZIMLOVISERTIB]

- IC50 [5]: > 10 µM
Structure (SMILES): CCC(=O)N1CC[C@H](Nc2ncnc3c2CN(c2cnc(OC)c(C(F)(F)F)c2)CC3)C1 [LENIOLISIB]

Structure (SMILES): Nc1cnc(N2CCc3cc(S(=O)(=O)Nc4c(F)cc(Cl)cc4F)cc(N4CCCC4=O)c32)nc1 [TP-020n]
- % of control [6]: 92%
- % of control [7]: 85%

- % of inhibition [8]: 6%
Structure (SMILES): Cc1ccc(-c2ccc3c(ccc4sc5c(c43)NC[C@@H](C)NC5=O)n2)cn1

Structure (SMILES): N#Cc1cccc(-c2c[nH]c3ncnc(N4CCOCC4)c23)c1
- % of inhibition [9]: 41%

Structure (SMILES): O[C@H]1CC[C@H](Nc2ncc3nc(Nc4c(F)cc(F)cc4F)n([C@H]4CCOC4)c3n2)CC1
- % of control [10]: 100%

Structure (SMILES): O=C(NOC[C@H](O)CO)c1ccc(F)c(F)c1Nc1ccc(I)cc1F
- % of control [11]: 100%
